We go through six compounds from paper PMC5789640, “Depletion of Arabidopsis ACYL-COA-BINDING PROTEIN3 Affects Fatty Acid Composition in the Phloem” (Frontiers in Plant Science, 2018).

Molecules are shown by their SMILES.

What is called Kd is the free concentration of one partner at which half of the binding sites on the other are occupied at equilibrium, for simple one-to-one binding.

The assay deals with T1, (His)6-AtACBP3 (Arabidopsis thaliana, UniProt Q9STX1).
T1 construct: gene ACBP3; plasmid pAT223, E. coli BL21(DE3) pLysS
T1 sequence (Q9STX1 23-362): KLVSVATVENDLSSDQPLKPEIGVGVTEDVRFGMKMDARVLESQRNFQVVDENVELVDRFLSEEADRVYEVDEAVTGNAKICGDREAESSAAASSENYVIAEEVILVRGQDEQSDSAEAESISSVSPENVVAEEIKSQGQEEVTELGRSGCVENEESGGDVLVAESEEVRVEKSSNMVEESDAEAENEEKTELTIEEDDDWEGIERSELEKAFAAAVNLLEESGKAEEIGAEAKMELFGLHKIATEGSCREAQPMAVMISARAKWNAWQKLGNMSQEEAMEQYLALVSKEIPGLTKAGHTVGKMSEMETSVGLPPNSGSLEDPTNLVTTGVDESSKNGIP
The assay can be described thus: isothermal titration calorimetry. The format is binding. From the text: isothermal titration calorimetry on (His)6-AtACBP3
(Isothermal titration calorimetry measures the heat released or taken up as one component is titrated into another.)
Regarding `CCCCCCCCCCCC(=O)SCCNC(=O)CCNC(=O)[C@H](O)C(C)(C)COP(=O)(O)OP(=O)(O)OC[C@H]1O[C@@H](n2cnc3c(N)ncnc32)[C@H](O)[C@@H]1OP(=O)(O)O` [C12:0-CoA ester], the dissociation constant Kd worked out at 33.1 ± 13 µM. Turning to `CCCCCCCCCCCCCC(=O)SCCNC(=O)CCNC(=O)[C@H](O)C(C)(C)COP(=O)(O)OP(=O)(O)OC[C@H]1O[C@@H](n2cnc3c(N)ncnc32)[C@H](O)[C@@H]1OP(=O)(O)O` [C14:0-CoA ester], the Kd was 4 ± 0.6 µM. This Kd is about 8.3-fold lower than that of the compound before. As for `CCCCCC/C=C\CCCCCCCC(=O)SCCNC(=O)CCNC(=O)[C@H](O)C(C)(C)COP(=O)(O)OP(=O)(O)OC[C@H]1O[C@@H](n2cnc3c(N)ncnc32)[C@H](O)[C@@H]1OP(=O)(O)O` [C16:1-CoA ester], the figure is 5.1 ± 1.9 µM; as for `CCCCCCCCCCCCCCCCC(=O)SCCNC(=O)CCNC(=O)[C@H](O)C(C)(C)COP(=O)(O)OP(=O)(O)OC[C@H]1O[C@@H](n2cnc3c(N)ncnc32)[C@H](O)[C@@H]1OP(=O)(O)O` [C17:0-CoA ester], 21 ± 4.7 µM; as for `CCCCC/C=C\C/C=C\CCCCCCCC(=O)SCCNC(=O)CCNC(=O)[C@H](O)C(C)(C)COP(=O)(O)OP(=O)(O)OC[C@H]1O[C@@H](n2cnc3c(N)ncnc32)[C@H](O)[C@@H]1OP(=O)(O)O` [C18:2-CoA ester], 13.4 ± 1.4 µM.

As for `CC/C=C\C/C=C\C/C=C\CCCCCCCC(=O)SCCNC(=O)CCNC(=O)[C@H](O)C(C)(C)COP(=O)(O)OP(=O)(O)OC[C@H]1O[C@@H](n2cnc3c(N)ncnc32)[C@H](O)[C@@H]1OP(=O)(O)O` [C18:3-CoA ester], the Kd is 8.6 ± 2 µM.
